Results published in the supplement of paper PMC10307832.

Key:
Assay in all cases: relative viability (nuclei count vs DMSO), 5 days (fraction); higher = more cells survive
NCI-H322M = test system: NCI-H322M
Method in brief: (§1)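 A single step with final 0.05% Triton X-100, 1% formaldehyde and 1 ug/ml Hoechst fixed the cells and stained nuclei 5 days after treatment. Lung cancer cell lines in 1536-well plates had been treated by pin tool the day after seeding with one drug alone or a fixed anchor-drug dose plus five library-drug doses (not always all listed) in √10 steps, and nuclei were counted on 4× images. Relative viability is the ratio of nuclei in treated wells to nuclei in vehicle wells, taken as the median of duplicate plates.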

SK-LU-1 = test system: SK-LU-1
Method in brief: as §1

NCI-H3122 = test system: NCI-H3122
Method in brief: as §1

NCI-H1915 = test system: NCI-H1915
Method in brief: as §1

EMC-BAC-2 = test system: EMC-BAC-2
Method in brief: as §1

NCI-H1975 = test system: NCI-H1975
Method in brief: as §1

NCI-H2342 = test system: NCI-H2342
Method in brief: as §1

NCI-H1437 = test system: NCI-H1437
Method in brief: as §1

SW 900 = test system: SW 900
Method in brief: as §1

LK-2 = test system: LK-2
Method in brief: as §1

NCI-H838 = test system: NCI-H838
Method in brief: as §1

NCI-H1944 = test system: NCI-H1944
Method in brief: as §1

NCI-H460 = test system: NCI-H460
Method in brief: as §1

NCI-H1755 = test system: NCI-H1755
Method in brief: as §1

PC-14 = test system: PC-14
Method in brief: as §1

NCI-H1355 = test system: NCI-H1355
Method in brief: as §1

NCI-H1666 = test system: NCI-H1666
Method in brief: as §1

NCI-H1648 = test system: NCI-H1648
Method in brief: as §1

RERF-LC-KJ = test system: RERF-LC-KJ
Method in brief: as §1

NCI-H2085 = test system: NCI-H2085
Method in brief: as §1

NCI-H2126 = test system: NCI-H2126
Method in brief: as §1

NCI-H647 = test system: NCI-H647
Method in brief: as §1

LCLC-103H = test system: LCLC-103H
Method in brief: as §1

C=C1C(=O)O[C@@H](CCCCCCCC)[C@@H]1C(=O)O [C-75] + O=C(CCCCCCC(=O)Nc1ccccc1)NO [Vorinostat] (partner 1 µM)
relative viability (NCI-H322M; first compound 0.08 µM): 0.859
relative viability (NCI-H322M; first compound 0.253 µM): 1.32
relative viability (NCI-H322M; first compound 0.8 µM): 0.851
relative viability (NCI-H322M; first compound 8 µM): 0.847
relative viability (SK-LU-1; first compound 0.08 µM): 0.782
relative viability (SK-LU-1; first compound 0.253 µM): 0.724
relative viability (SK-LU-1; first compound 0.8 µM): 0.698
relative viability (SK-LU-1; first compound 2.53 µM): 0.752
relative viability (SK-LU-1; first compound 8 µM): 0.59
relative viability (NCI-H3122; first compound 0.08 µM): 1.02
relative viability (NCI-H3122; first compound 0.253 µM): 1.6
relative viability (NCI-H3122; first compound 0.8 µM): 1.01
relative viability (NCI-H3122; first compound 2.53 µM): 0.578
relative viability (NCI-H3122; first compound 8 µM): 0.989
relative viability (NCI-H1915; first compound 0.08 µM): 0.506
relative viability (NCI-H1915; first compound 0.253 µM): 0.548
relative viability (NCI-H1915; first compound 0.8 µM): 0.526
relative viability (NCI-H1915; first compound 2.53 µM): 0.475
relative viability (NCI-H1915; first compound 8 µM): 0.536
relative viability (EMC-BAC-2; first compound 0.08 µM): 0.462
relative viability (EMC-BAC-2; first compound 0.253 µM): 0.407
relative viability (EMC-BAC-2; first compound 0.8 µM): 0.276
relative viability (EMC-BAC-2; first compound 2.53 µM): 0.355
relative viability (EMC-BAC-2; first compound 8 µM): 0.378
relative viability (NCI-H1975; first compound 0.08 µM): 0.757
relative viability (NCI-H1975; first compound 0.253 µM): 0.733
relative viability (NCI-H1975; first compound 0.8 µM): 0.761
relative viability (NCI-H1975; first compound 2.53 µM): 0.718
relative viability (NCI-H1975; first compound 8 µM): 0.742
relative viability (NCI-H2342; first compound 0.08 µM): 0.695
relative viability (NCI-H2342; first compound 0.253 µM): 0.728
relative viability (NCI-H2342; first compound 0.8 µM): 0.71
relative viability (NCI-H2342; first compound 2.53 µM): 0.727
relative viability (NCI-H2342; first compound 8 µM): 0.736
relative viability (NCI-H1437; first compound 0.08 µM): 0.866
relative viability (NCI-H1437; first compound 0.253 µM): 0.98
relative viability (NCI-H1437; first compound 0.8 µM): 0.733
relative viability (NCI-H1437; first compound 8 µM): 0.717
relative viability (SW 900; first compound 0.08 µM): 0.669
relative viability (SW 900; first compound 0.253 µM): 0.824
relative viability (SW 900; first compound 0.8 µM): 0.47
relative viability (SW 900; first compound 2.53 µM): 0.395
relative viability (SW 900; first compound 8 µM): 0.49
relative viability (LK-2; first compound 0.08 µM): 0.387
relative viability (LK-2; first compound 0.253 µM): 0.315
relative viability (LK-2; first compound 0.8 µM): 0.319
relative viability (LK-2; first compound 2.53 µM): 0.286
relative viability (LK-2; first compound 8 µM): 0.324
relative viability (NCI-H838; first compound 0.08 µM): 0.761
relative viability (NCI-H838; first compound 0.253 µM): 0.669
relative viability (NCI-H838; first compound 0.8 µM): 0.726
relative viability (NCI-H838; first compound 2.53 µM): 0.648
relative viability (NCI-H838; first compound 8 µM): 0.663
relative viability (NCI-H1944; first compound 0.08 µM): 0.571
relative viability (NCI-H1944; first compound 0.253 µM): 0.591
relative viability (NCI-H1944; first compound 0.8 µM): 0.475
relative viability (NCI-H1944; first compound 2.53 µM): 0.42
relative viability (NCI-H1944; first compound 8 µM): 0.483
relative viability (NCI-H460; first compound 0.08 µM): 0.698
relative viability (NCI-H460; first compound 0.253 µM): 0.882
relative viability (NCI-H460; first compound 0.8 µM): 0.688
relative viability (NCI-H460; first compound 2.53 µM): 0.58
relative viability (NCI-H460; first compound 8 µM): 0.674
relative viability (NCI-H1755; first compound 0.08 µM): 0.732
relative viability (NCI-H1755; first compound 0.253 µM): 0.868
relative viability (NCI-H1755; first compound 0.8 µM): 0.692
relative viability (NCI-H1755; first compound 2.53 µM): 0.774
relative viability (NCI-H1755; first compound 8 µM): 0.732
relative viability (PC-14; first compound 0.08 µM): 0.721
relative viability (PC-14; first compound 0.253 µM): 0.741
relative viability (PC-14; first compound 0.8 µM): 0.63
relative viability (PC-14; first compound 2.53 µM): 0.61
relative viability (PC-14; first compound 8 µM): 0.717
relative viability (NCI-H1355; first compound 0.08 µM): 0.643
relative viability (NCI-H1355; first compound 0.253 µM): 0.696
relative viability (NCI-H1355; first compound 0.8 µM): 0.67
relative viability (NCI-H1355; first compound 2.53 µM): 0.52
relative viability (NCI-H1355; first compound 8 µM): 0.639
relative viability (NCI-H1666; first compound 0.08 µM): 1.05
relative viability (NCI-H1666; first compound 0.253 µM): 1.3
relative viability (NCI-H1666; first compound 0.8 µM): 0.895
relative viability (NCI-H1666; first compound 8 µM): 0.913
relative viability (NCI-H1648; first compound 0.08 µM): 0.571
relative viability (NCI-H1648; first compound 0.253 µM): 1.1
relative viability (NCI-H1648; first compound 0.8 µM): 0.283
relative viability (NCI-H1648; first compound 8 µM): 0.216
relative viability (RERF-LC-KJ; first compound 0.08 µM): 0.713
relative viability (RERF-LC-KJ; first compound 0.253 µM): 0.801
relative viability (RERF-LC-KJ; first compound 0.8 µM): 0.687
relative viability (RERF-LC-KJ; first compound 2.53 µM): 0.69
relative viability (RERF-LC-KJ; first compound 8 µM): 0.71
relative viability (NCI-H2085; first compound 0.08 µM): 0.801
relative viability (NCI-H2085; first compound 0.253 µM): 0.749
relative viability (NCI-H2085; first compound 0.8 µM): 0.752
relative viability (NCI-H2085; first compound 2.53 µM): 0.664
relative viability (NCI-H2085; first compound 8 µM): 0.738
relative viability (NCI-H2126; first compound 0.08 µM): 0.721
relative viability (NCI-H2126; first compound 0.253 µM): 0.92
relative viability (NCI-H2126; first compound 0.8 µM): 0.792
relative viability (NCI-H2126; first compound 2.53 µM): 0.642
relative viability (NCI-H2126; first compound 8 µM): 0.744
relative viability (NCI-H647; first compound 0.08 µM): 0.47
relative viability (NCI-H647; first compound 0.253 µM): 0.873
relative viability (NCI-H647; first compound 0.8 µM): 0.638
relative viability (NCI-H647; first compound 2.53 µM): 0.464
relative viability (NCI-H647; first compound 8 µM): 0.486
relative viability (LCLC-103H; first compound 0.08 µM): 0.736
relative viability (LCLC-103H; first compound 0.253 µM): 0.758
relative viability (LCLC-103H; first compound 0.8 µM): 0.708
relative viability (LCLC-103H; first compound 2.53 µM): 0.664
relative viability (LCLC-103H; first compound 8 µM): 0.765
